Like-named read-outs stand apart in the source and are kept apart here.
What was measured:
[1] = biological target: T1, human glucocorticoid receptor (GR) (Homo sapiens, UniProt P04150); conditions: 293 cell lysate, 20 µL/200 µL assayed
T1 sequence (P04150 1-777): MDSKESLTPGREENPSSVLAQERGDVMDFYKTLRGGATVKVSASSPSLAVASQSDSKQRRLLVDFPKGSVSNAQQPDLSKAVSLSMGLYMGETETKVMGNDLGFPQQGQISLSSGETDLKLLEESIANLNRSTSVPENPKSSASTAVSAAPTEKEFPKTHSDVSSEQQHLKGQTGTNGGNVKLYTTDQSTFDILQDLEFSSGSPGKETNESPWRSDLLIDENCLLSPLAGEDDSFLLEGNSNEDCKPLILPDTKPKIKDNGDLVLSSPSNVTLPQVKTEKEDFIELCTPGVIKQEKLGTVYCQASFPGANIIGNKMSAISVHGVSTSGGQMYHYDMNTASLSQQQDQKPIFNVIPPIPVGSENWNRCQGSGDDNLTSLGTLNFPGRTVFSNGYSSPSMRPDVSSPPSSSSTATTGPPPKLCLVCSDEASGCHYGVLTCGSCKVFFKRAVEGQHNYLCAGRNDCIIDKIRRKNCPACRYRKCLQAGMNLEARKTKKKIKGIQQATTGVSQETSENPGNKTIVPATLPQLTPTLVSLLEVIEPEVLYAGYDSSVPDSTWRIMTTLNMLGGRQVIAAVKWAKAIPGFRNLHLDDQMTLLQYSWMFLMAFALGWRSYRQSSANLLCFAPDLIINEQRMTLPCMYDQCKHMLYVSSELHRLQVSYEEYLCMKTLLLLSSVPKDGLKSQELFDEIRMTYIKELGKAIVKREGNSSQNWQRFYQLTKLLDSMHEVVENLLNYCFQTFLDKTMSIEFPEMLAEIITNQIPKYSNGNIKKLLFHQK
Protocol: The coinfection assay was carried out in the following manner. Twelve well dishes were seeded with 293 cells at a density of 1.2×10^5 cells per well and grown in Dulbecco's modified Eagle's medium (DME) supplemented with 10% fetal calf serum. Assuming that the hGR4, MLUC3, and dl 309 virus stocks were 10^8 PFU/ml, the next day cells were infected with various combinations of these stocks in triplicate at a multiplicity of infection corresponding to 50. Dexamethasone dissolved in 50% ethanol or the control vehicle alone were each diluted into DME supplemented with 10% charcoal-adsorbed fetal calf serum at a final concentration of 0.1 μM. These mixtures were added to cells adsorbed with virus for thirty minutes. Cells were harvested at 18, 22 and 89 hours after infection by scraping them from the plate and washing the cell pellets in phosphate-buffered saline, and resuspending them in 100 microliters of 100 mM K2 HPO4 (pH 7.8), 1 mM dithiothreitol). Cell lysates were prepared by three cycles of sequential freezing and thawing in a dry ice/ethanol and 37° C. baths. Cell debris was pelleted by centrifugation in a microcentrifuge for 5 minutes at 4° C. […] Luciferase enzyme activity was assayed by automatic injection of 1 mM d-luciferin (Analytical Luminescence Laboratories) as described in de Wet et al. Mol. Cell. Biol. 7, 725 (1987) using a Berthold luminometer.
The orientation is reversed relative to the major late promoter with the RSV long term repeat promoter driving the expression of the human glucocorticoid receptor DNA terminating with SV40 polyadenylation sequence. This orientation removes the tripartite leader from functioning in its usual manner. A separate vector for the receptor DNA is constructed similarly. The two vectors are separately used to infect 293 cells. First, 293 cells are infected with the vector bearing the human glucocorticoid receptor DNA. Successful infection can be tested by picking plaques and doing a Western analysis with human glucocorticoid receptor antibodies or one can measure the ligand binding properties of the extracts or one can do a restriction map analysis to assure proper infection with the human glucocoid receptor adenovirus DNA. Successfully infected cells are then infected with the reporter virus vector. Alternatively, both vectors could be mixed on, for example, 293 cells. Where host cells not bearing a complement of the adenovirus genome are used, one may coinfect with wild-type virus in order to supply the missing complement. […] The material to be tested may either be added in at the beginning or at such twenty-two hour period. The cells are then tested for measurement of the reporter activity. In the case of the exemplified luciferase gene, that measurement takes the form of quantitating light emission from luciferin oxidized by any luciferase present.

[2] = biological target: T1, human glucocorticoid receptor (GR); test: Functional assay with recombinant receptor (hGR4) and reporter (MLUC3) viruses in 293 cells, luciferase activity; conditions: 10^-7 M dex, 293 cells, 22 hours after infection, 0.1 µM
Source text: A reporter virus (MLUC3; also variously referred to as Ad3MLUC, MpCV3MTV-LUC-Ad and ADMLUC) was constructed containing the mouse mammary tumor virus LTR linked to the firefly luciferase cDNA with an SV40 polyadenylation signal (Hollenberg, et al., Cell 55, 899 (1988)) similar to the receptor virus hGR4 above. The two viruses, hGR4 and MLUC3, were coinfected into 293 cells growing in DMEM suplemented with 10% charcoal adsorbed fetal calf serum ±10^-7 M dexamethasone (dex), and cellular extracts were prepared by Triton X-100™ brand non-ionic surfactant lysis at 22 hours after infection. (Williams, et al., Anal. Biochem 176, 28 (1989)) These were tested for luciferase activity by incubating with ATP and luciferin in a suitable buffer system. (de Wet, et al., Mol. Cell Biol. 7, 725 (1987)). Light liberated in this reaction was measured using a luminometer.

For `C[C@@H]1C[C@H]2[C@@H]3CCC4=CC(=O)C=C[C@]4(C)[C@@]3(F)[C@@H](O)C[C@]2(C)[C@@]1(O)C(=O)CO` [DEX, Dexamethasone], the “Response of cell lysate (luciferase activity), with CV” value (shortened to “Response of cell lysate”) ([1]; co-infection HGR + DL309, 18 HRS after co-infection, DEX 3 × 10^-9) was 35 (28%), the “Response of cell lysate” value ([1]; co-infection HGR + DL309, 18 HRS after co-infection, DEX 10^-7 M) was 33 and the “Response of cell lysate” value ([1]; co-infection HGR + DL309, 22 HRS after co-infection, DEX 3 × 10^-9) was 40 (19%). For the same molecule, the “Response of cell lysate” value ([1]; co-infection HGR + DL309, 22 HRS after co-infection, DEX 10^-7 M) was 42 (38%), the “Response of cell lysate” value ([1]; co-infection HGR + DL309, 89 HR after co-infection, DEX 3 × 10^-9) was 22 (14%) and the “Response of cell lysate” value ([1]; co-infection HGR + DL309, 89 HR after co-infection, DEX 10^-7 M) was 27 (4%). The “Response of cell lysate” value ([1]; co-infection HGR + MTV-LUC, 18 HRS after co-infection, DEX 3 × 10^-9) was 30015, the “Response of cell lysate” value ([1]; co-infection HGR + MTV-LUC, 18 HRS after co-infection, DEX 10^-7 M) was 72864 and the “Response of cell lysate” value ([1]; co-infection HGR + MTV-LUC, 22 HRS after co-infection, DEX 3 × 10^-9) was 48858 (14%). For the same molecule, the “Response of cell lysate” value ([1]; co-infection HGR + MTV-LUC, 22 HRS after co-infection, DEX 10^-7 M) was 90718 (18%), the “Response of cell lysate” value ([1]; co-infection HGR + MTV-LUC, 89 HR after co-infection, DEX 3 × 10^-9) was 1246 (68%) and the “Response of cell lysate” value ([1]; co-infection HGR + MTV-LUC, 89 HR after co-infection, DEX 10^-7 M) was 1065 (7%). The “Response of cell lysate” value ([1]; co-infection MTV-LUC + DL309, 18 HRS after co-infection, DEX 3 × 10^-9) was 3643 (20%), the “Response of cell lysate” value ([1]; co-infection MTV-LUC + DL309, 18 HRS after co-infection, DEX 10^-7 M) was 19130 and the “Response of cell lysate” value ([1]; co-infection MTV-LUC + DL309, 22 HRS after co-infection, DEX 3 × 10^-9) was 5095 (12%). For the same molecule, the “Response of cell lysate” value ([1]; co-infection MTV-LUC + DL309, 22 HRS after co-infection, DEX 10^-7 M) was 24215 (4%), the “Response of cell lysate” value ([1]; co-infection MTV-LUC + DL309, 89 HR after co-infection, DEX 3 × 10^-9) was 53 (48%) and the “Response of cell lysate” value ([1]; co-infection MTV-LUC + DL309, 89 HR after co-infection, DEX 10^-7 M) was 151 (23%). The “Response of cell lysate” value ([1]; infection DL309 only, 18 HRS after co-infection, DEX 3 × 10^-9) was 28 (5%), the “Response of cell lysate” value ([1]; infection DL309 only, 18 HRS after co-infection, DEX 10^-7 M) was 32 and the “Response of cell lysate” value ([1]; infection DL309 only, 22 HRS after co-infection, DEX 3 × 10^-9) was 42 (22%). For the same molecule, the “Response of cell lysate” value ([1]; infection DL309 only, 22 HRS after co-infection, DEX 10^-7 M) was 43 (11%), the “Response of cell lysate” value ([1]; infection DL309 only, 89 HR after co-infection, DEX 3 × 10^-9) was 22 (24%) and the “Response of cell lysate” value ([1]; infection DL309 only, 89 HR after co-infection, DEX 10^-7 M) was 23 (7%). For the same molecule, the “Additional enhancement of the luciferase response by coinfection with hGR4” value ([2]; MLUC3 + hGR4 (not with parental dl 309)) was 5 fold and the “Stimulation of luciferase activity” value ([2]; MLUC3 alone) was 10 fold.
